Measurements taken from US12060347B2 (BRISTOL-MYERS SQUIBB COMPANY, priority 2016, dated 2024).

Columns and labels:
human PAR4 = molecular target: T1, human PAR4 (Homo sapiens, UniProt Q96RI0); assay: PAR4 FLIPR assay: antagonism of agonist-peptide-induced calcium mobilization in PAR4-expressing HEK293 cells; type: cell-based; conditions: H-Ala-Phe(4-F)-[…]NH2-induced intracellular calcium mobilization, 11-point curves
T1 construct: expressed in transfected cells; host or cells: HEK293 PAR4 Clone 1.2A (BMS Arctic ID 383940)
T1 sequence (Q96RI0 18-385): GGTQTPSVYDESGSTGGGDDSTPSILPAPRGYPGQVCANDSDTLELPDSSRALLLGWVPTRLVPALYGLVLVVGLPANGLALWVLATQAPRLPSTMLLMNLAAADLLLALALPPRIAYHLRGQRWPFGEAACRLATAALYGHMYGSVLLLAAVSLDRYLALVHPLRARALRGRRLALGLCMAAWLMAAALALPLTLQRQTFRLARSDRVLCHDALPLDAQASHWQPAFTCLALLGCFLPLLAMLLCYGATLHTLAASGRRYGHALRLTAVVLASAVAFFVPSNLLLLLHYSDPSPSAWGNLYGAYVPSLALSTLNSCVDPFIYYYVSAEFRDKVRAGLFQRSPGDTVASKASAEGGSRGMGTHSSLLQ

[1] = molecular target: T2, protease-activated receptor type 4 (PAR4) (Homo sapiens, UniProt Q96RI0); conditions: abstract of Lee et al. 2001; cited from earlier work
T2 sequence (Q96RI0 18-385): T1 sequence (Q96RI0 18-385)

PAR1 = molecular target: T3, PAR1 (Homo sapiens, UniProt P25116); conditions: ACS patients, TRACER phase III trial; cited from earlier work
T3 sequence (P25116 22-425): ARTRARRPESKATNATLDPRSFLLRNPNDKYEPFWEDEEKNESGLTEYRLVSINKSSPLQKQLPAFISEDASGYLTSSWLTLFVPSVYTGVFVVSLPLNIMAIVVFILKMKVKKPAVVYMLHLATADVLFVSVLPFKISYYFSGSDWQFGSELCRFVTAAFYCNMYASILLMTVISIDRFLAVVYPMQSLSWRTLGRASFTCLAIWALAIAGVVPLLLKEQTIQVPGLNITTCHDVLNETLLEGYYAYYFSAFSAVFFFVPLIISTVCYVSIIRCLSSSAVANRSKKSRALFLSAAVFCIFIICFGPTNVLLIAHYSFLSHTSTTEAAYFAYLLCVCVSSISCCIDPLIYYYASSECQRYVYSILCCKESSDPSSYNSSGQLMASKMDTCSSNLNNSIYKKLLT

Row | SMILES | IC50 (human PAR4) [nM] | other results
1 | COc1cnc2c(-c3nc4cc(F)c(OC[C@@H](C)OC(=O)Nc5ccc(C#N)nc5)cc4s3)cc(C#N)cc2n1 [Example 818, (R)-1-((2-(7-cyano-2-methoxyquinoxalin-5-yl)-5-fluorobenzo[d]thiazol-6-yl)oxy)propan-2-yl (6-cyanopyridin-3-yl)carbamate] | 1.8 | 
2 | COc1cnc2c(-c3nc4cc(F)c(OC[C@@H](C)OC(=O)Nc5cnc(C)nc5)cc4s3)cc(C#N)cc2n1 [Example 819, (R)-1-((2-(7-cyano-2-methoxyquinoxalin-5-yl)-5-fluorobenzo[d]thiazol-6-yl)oxy)propan-2-yl (2-methylpyrimidin-5-yl)carbamate] | 1.2 | 
3 | COc1cnc2c(-c3nc4cc(F)c(O[C@@H](C)[C@@H](C)OC(=O)Nc5cnc(OC)nc5)cc4s3)cc(Cl)cc2n1 [Example 820, (2R,3S)-3-((2-(7-chloro-2-methoxyquinoxalin-5-yl)-5-fluorobenzo[d]thiazol-6-yl)oxy)butan-2-yl (2-methoxypyrimidin-5-yl)carbamate] | 1.7 | 
4 | COc1ccc(NC(=O)O[C@H](C)[C@H](C)Oc2cc3sc(-c4cc(Cl)cc5nc(OC)cnc45)nc3cc2F)cn1 [Example 821, (2R,3S)-3-((2-(7-chloro-2-methoxyquinoxalin-5-yl)-5-fluorobenzo[d]thiazol-6-yl)oxy)butan-2-yl (6-methoxypyridin-3-yl)carbamate] | 4.6 | 
5 | COc1cnc2c(-c3nc4cc(F)c(O[C@@H](C)[C@@H](C)OC(=O)Nc5ccc(C)nc5)cc4s3)cc(Cl)cc2n1 [Example 822, (2R,3S)-3-((2-(7-chloro-2-methoxyquinoxalin-5-yl)-5-fluorobenzo[d]thiazol-6-yl)oxy)butan-2-yl (6-methylpyridin-3-yl)carbamate] | 1.6 | 
6 | COc1cnc2c(-c3nc4cc(F)c(O[C@@H](C)[C@@H](C)OC(=O)Nc5ccc(C)nc5)cc4s3)cc(C#N)cc2n1 [Example 823, (2R,3S)-3-((2-(7-cyano-2-methoxyquinoxalin-5-yl)-5-fluorobenzo[d]thiazol-6-yl)oxy)butan-2-yl (6-methylpyridin-3-yl)carbamate] | 5.1 | 
7 | COc1cnc2c(-c3nc4cc(F)c(O[C@@H](C)[C@@H](C)OC(=O)Nc5cnc(C)nc5)cc4s3)cc(Cl)cc2n1 [Example 824, (2R,3S)-3-((2-(7-chloro-2-methoxyquinoxalin-5-yl)-5-fluorobenzo[d]thiazol-6-yl)oxy)butan-2-yl (2-methylpyrimidin-5-yl)carbamate] | 1.5 | 
8 | COc1cnc2c(-c3nc4cc(F)c(O[C@@H](C)[C@@H](C)OC(=O)Nc5cnc(C)nc5)cc4s3)cc(C#N)cc2n1 [Example 825, (2R,3S)-3-((2-(7-cyano-2-methoxyquinoxalin-5-yl)-5-fluorobenzo[d]thiazol-6-yl)oxy)butan-2-yl (2-methylpyrimidin-5-yl)carbamate] | 8 | 
9 | COc1cnc2c(-c3nc4cc(F)c(O[C@@H](C)[C@@H](C)OC(=O)Nc5cncc(C#N)c5)cc4s3)cc(Cl)cc2n1 [Example 826, (2R,3S)-3-((2-(7-chloro-2-methoxyquinoxalin-5-yl)-5-fluorobenzo[d]thiazol-6-yl)oxy)butan-2-yl (5-cyanopyridin-3-yl)carbamate] | 1.9 | 
10 | Cc1cc(-c2nc3cc(F)c(O[C@@H](C)[C@@H](C)OC(=O)Nc4cnc(C)nc4)cc3s2)c2ncc(OCC(F)F)nc2c1 [Example 827, (2R,3S)-3-((2-(2-(2,2-difluoroethoxy)-7-methylquinoxalin-5-yl)-5-fluorobenzo[d]thiazol-6-yl)oxy)butan-2-yl (2-methylpyrimidin-5-yl)carbamate] | 6.2 | 
11 | COc1cnc2c(-c3nc4cc(F)c(O[C@@H](C)[C@@H](C)OC(=O)Nc5ccc(C#N)nc5)cc4s3)cc(C#N)cc2n1 [Example 828, (2R,3S)-3-((2-(7-cyano-2-methoxyquinoxalin-5-yl)-5-fluorobenzo[d]thiazol-6-yl)oxy)butan-2-yl (6-cyanopyridin-3-yl)carbamate] | 0.7 | 
12 | COc1cnc2c(-c3nc4cc(F)c(O[C@@H](C)[C@@H](C)OC(=O)Nc5ccc(C#N)nc5)cc4s3)cc(Cl)cc2n1 [Example 829, (2R,3S)-3-((2-(7-chloro-2-methoxyquinoxalin-5-yl)-5-fluorobenzo[d]thiazol-6-yl)oxy)butan-2-yl (6-cyanopyridin-3-yl)carbamate] | 0.6 | 
13 | COC(=O)c1ccc(NC(=O)O[C@H](C)[C@H](C)Oc2cc3sc(-c4cc(Cl)cc5nc(OC)cnc45)nc3cc2F)cn1 [Example 830, methyl 5-(((((2R,3S)-3-((2-(7-chloro-2-methoxyquinoxalin-5-yl)-5-fluorobenzo[d]thiazol-6-yl)oxy)butan-2-yl)oxy)carbonyl)amino)picolinate] | 1.6 | 
14 | COc1cnc2c(-c3nc4cc(F)c(O[C@@H](C)[C@@H](C)OC(=O)Nc5ccc(CO)nc5)cc4s3)cc(Cl)cc2n1 [Example 831, (2R,3S)-3-((2-(7-chloro-2-methoxyquinoxalin-5-yl)-5-fluorobenzo[d]thiazol-6-yl)oxy)butan-2-yl (6-(hydroxymethyl)pyridin-3-yl)carbamate] | 2.2 | 
15 | CNC(=O)c1ccc(NC(=O)O[C@H](C)[C@H](C)Oc2cc3sc(-c4cc(Cl)cc5nc(OC)cnc45)nc3cc2F)cn1 [Example 832, (2R,3S)-3-((2-(7-chloro-2-methoxyquinoxalin-5-yl)-5-fluorobenzo[d]thiazol-6-yl)oxy)butan-2-yl (6-(methylcarbamoyl)pyridin-3-yl)carbamate] | 2.5 | 
16 | COc1cnc2c(-c3nc4cc(F)c(O[C@@H](C)[C@@H](C)OC(=O)Nc5ccc(C(N)=O)nc5)cc4s3)cc(Cl)cc2n1 [Example 833, (2R,3S)-3-((2-(7-chloro-2-methoxyquinoxalin-5-yl)-5-fluorobenzo[d]thiazol-6-yl)oxy) butan-2-yl (6-carbamoylpyridin-3-yl)carbamate] | 1.6 | 
17 | COc1cnc2c(-c3nc4cc(F)c(O[C@@H](C)[C@@H](C)OC(=O)Nc5ccc(C(=O)N(C)C)nc5)cc4s3)cc(Cl)cc2n1 [Example 834, (2R,3S)-3-((2-(7-chloro-2-methoxyquinoxalin-5-yl)-5-fluorobenzo[d]thiazol-6-yl)oxy)butan-2-yl (6-(dimethylcarbamoyl)pyridin-3-yl)carbamate] | 3 | 
18 | COc1cnc2c(-c3nc4cc(F)c(O[C@@H](C)[C@@H](C)OC(=O)Nc5ccc(CC(C)(C)O)nc5)cc4s3)cc(Cl)cc2n1 [Example 835, (2R,3S)-3-((2-(7-chloro-2-methoxyquinoxalin-5-yl)-5-fluorobenzo[d]thiazol-6-yl)oxy)butan-2-yl (6-(2-hydroxy-2-methylpropyl)pyridin-3-yl)carbamate] | 0.5 | 
19 | COc1cnc2c(-c3nc4cc(F)c(O[C@@H](C)[C@@H](C)OC(=O)Nc5ccc(CCO)nc5)cc4s3)cc(Cl)cc2n1 [Example 836, (2R,3S)-3-((2-(7-chloro-2-methoxyquinoxalin-5-yl)-5-fluorobenzo[d]thiazol-6-yl)oxy)butan-2-yl (6-(2-hydroxyethyl)pyridin-3-yl)carbamate] | 1.2 | 
20 | COc1cc(C)c2nc(-c3cc(Cl)cc4nc(OC)cnc34)sc2c1 [Example 837, 2-(7-chloro-2-methoxyquinoxalin-5-yl)-6-methoxy-4-methylbenzo[d]thiazole] | 17 | 
21 | CCOC(=O)c1ccc(-c2nn(Cc3ccccc3)c3ccccc23)cc1 [YD-3, ethyl 4-(1-benzyl-1H-indazol-3-yl)benzoate] |  | inhibition of PAR4-dependent platelet activation [1]: selective and potent inhibitor
22 | CCOC(=O)N[C@@H]1CC[C@@H]2[C@@H](C1)C[C@H]1C(=O)O[C@H](C)[C@H]1[C@H]2/C=C/c1ccc(-c2cccc(F)c2)cn1 [vorapaxar] |  | cardiovascular events (PAR1): did not significantly reduce; risk of major bleeding (PAR1): significantly increased
